Reference: ChEMBL document CHEMBL1134908, “Synthesis of cholesterol-carborane conjugate for targeted drug delivery” (Bioorg Med Chem Lett, 2002)

System: Cancer cell lines
Assay: The cytotoxicity in liposomal formulation was determined on the SF-763 human glioma cancer cell line
Format: functional, cell-based

Cholesteryl 1,12-dicarba-closo-dodecaborane-1-carboxylate (BCH)
Viable cells: 98.5%
